Laboratory results published in the supplement of paper PMC10307832.

How the values were obtained:
Assay in all cases: relative viability (nuclei count vs DMSO), 5 days (fraction); higher = more cells survive
[1] = compound: CC1=NC=CC(=C1)C2=CC=C(C=C2)CC(=O)NC3=CC=C(C=C3)C4=CN=CC=C4 [Wnt-C59] + N=C(N)NC(=N)NCCc1ccccc1 [Phenformin] (partner 250 µM)
Procedure, shortened: (§1)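 Relative viability divides the nuclei count in treated wells by that in vehicle wells. Lung cancer cell lines were seeded in 1536-well plates, dosed by pin tool the next day, and fixed and stained after 5 days in one step with final 0.05% Triton X-100, 1% formaldehyde and 1 ug/ml Hoechst. Dosing was a single drug or a fixed anchor-drug dose plus five library-drug doses (not always all listed) in √10 steps, and values are medians of duplicate plates imaged at 4×.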

[2] = compound: CS(=O)(=O)CCNCc1ccc(-c2ccc3ncnc(Nc4ccc(OCc5cccc(F)c5)c(Cl)c4)c3c2)o1 [Lapatinib] + COc1cccc2cc(-c3nc([C@H]4CC[C@H](C(=O)O)CC4)n4ncnc(N)c34)[nH]c12 [OSI-027] (partner 0.5 µM)
Procedure, shortened: as §1

[3] = compound: CC1=NC=CC(=C1)C2=CC=C(C=C2)CC(=O)NC3=CC=C(C=C3)C4=CN=CC=C4 [Wnt-C59] + C[C@]1(O)C[C@@H](c2nc(-c3ccc4ccc(-c5ccccc5)nc4c3)c3c(N)nccn32)C1 [Linsitinib] (partner 1 µM)
Procedure, shortened: as §1

[4] = compound: CS(=O)(=O)CCNCc1ccc(-c2ccc3ncnc(Nc4ccc(OCc5cccc(F)c5)c(Cl)c4)c3c2)o1 [Lapatinib] + CC(=O)c1c(C)c2cnc(Nc3ccc(N4CCNCC4)cn3)nc2n(C2CCCC2)c1=O [Palbociclib] (partner 0.5 µM)
Procedure, shortened: as §1

Cell Line | relative viability ([1]; first compound 0.001 µM) | relative viability ([1]; first compound 0.01 µM) | relative viability ([1]; first compound 0.03162 µM) | relative viability ([1]; first compound 0.1 µM) | relative viability ([2]; first compound 0.02 µM) | relative viability ([2]; first compound 0.06325 µM) | relative viability ([2]; first compound 0.2 µM) | relative viability ([2]; first compound 0.6325 µM) | relative viability ([2]; first compound 2 µM) | relative viability ([3]; first compound 0.001 µM) | relative viability ([3]; first compound 0.01 µM) | relative viability ([3]; first compound 0.03162 µM) | relative viability ([3]; first compound 0.1 µM) | relative viability ([4]; first compound 0.02 µM) | relative viability ([4]; first compound 0.06325 µM) | relative viability ([4]; first compound 0.2 µM) | relative viability ([4]; first compound 0.6325 µM) | relative viability ([4]; first compound 2 µM)
RERF-LC-KJ | 0.441 | 0.478 | 0.433 | 0.419 | 0.532 | 0.344 | 0.424 | 0.401 | 0.315 | 0.914 | 0.79 | 0.908 | 0.85 | 1.11 | 0.885 | 0.996 | 0.864 | 0.799
EMC-BAC-2 | 0.533 | 0.484 | 0.525 | 0.505 | 0.339 | 0.277 | 0.377 | 0.392 | 0.346 | 0.736 | 0.642 | 0.741 | 0.709 | – | 0.459 | 0.524 | 0.536 | 0.539
NCI-H522 | 0.614 | 0.599 | 0.601 | 0.64 | – | 0.565 | 0.658 | 0.681 | 0.589 | – | – | – | – | – | 0.749 | 0.954 | 1.02 | 0.777
NCI-H1651 | 0.344 | 0.345 | 0.377 | 0.332 | 0.648 | 0.454 | 0.622 | 0.648 | 0.519 | 1 | 0.9 | 1.02 | 0.852 | 0.547 | 0.456 | 0.483 | 0.478 | 0.514
IA-LM | – | – | – | – | – | – | – | – | – | 0.67 | 0.549 | 0.621 | 0.533 | – | – | – | – | –
NCI-H520 | 0.503 | 0.59 | 0.59 | 0.55 | 0.276 | 0.181 | 0.321 | 0.266 | 0.232 | 0.944 | 0.912 | 1.1 | 0.843 | 0.221 | 0.2 | 0.231 | 0.291 | 0.238
NCI-H1793 | 0.34 | – | 0.397 | 0.362 | – | 0.143 | 0.235 | 0.167 | 0.16 | 0.926 | 0.729 | 0.875 | 0.865 | – | 0.25 | 0.258 | 0.293 | 0.241
NCI-H647 | 0.479 | 0.453 | 0.578 | 0.481 | 0.635 | 0.488 | 0.527 | 0.689 | 0.642 | 1.08 | 1.15 | 1.18 | 1.22 | 0.393 | 0.393 | 0.434 | 0.292 | 0.307
HCC-44 | 0.315 | 0.201 | 0.153 | 0.23 | – | 0.341 | 0.509 | 0.421 | 0.473 | 0.745 | 0.641 | 0.665 | 0.644 | 0.995 | 1.01 | 0.976 | 1.05 | 0.823
HCC-827 | 0.431 | 0.413 | 0.452 | 0.391 | 0.54 | 0.7 | 0.691 | 0.71 | 0.661 | 1 | 0.966 | 0.977 | 0.884 | 0.435 | 0.433 | 0.461 | 0.257 | 0.415
NCI-H2170 | 0.436 | 0.395 | 0.405 | 0.443 | 0.459 | 0.459 | 0.64 | 0.41 | 0.245 | – | – | – | – | 0.376 | 0.313 | 0.271 | 0.277 | 0.136
Calu-6 | – | – | – | – | – | – | – | – | – | 0.89 | 0.9 | 0.987 | 0.955 | – | – | – | – | –
HCC-366 | 0.614 | 0.605 | 0.668 | 0.528 | – | 0.58 | 0.838 | 0.859 | 0.373 | 0.697 | 0.582 | 0.717 | 0.595 | – | 0.334 | 0.339 | 0.356 | 0.323
NCI-H2405 | 0.413 | 0.336 | 0.366 | 0.384 | 0.441 | 0.382 | 0.655 | 0.649 | 0.604 | 1.03 | – | 0.887 | 0.875 | – | 0.452 | – | 0.505 | 0.518
NCI-H1648 | – | – | – | – | 0.266 | 0.306 | 0.289 | 0.288 | 0.268 | – | – | – | – | – | 0.222 | 0.294 | 0.285 | 0.252
LCLC-97TM1 | 0.397 | 0.425 | 0.475 | 0.429 | – | – | 0.564 | 0.497 | 0.503 | 0.182 | 0.171 | 0.176 | 0.156 | – | 0.135 | 0.248 | 0.19 | 0.233
EPLC-272H | 0.297 | 0.303 | 0.335 | 0.335 | – | – | 0.256 | 0.227 | 0.224 | 1.29 | 1.23 | 1.08 | 1.15 | – | 0.288 | 0.291 | 0.299 | 0.261
NCI-H1755 | 0.486 | 0.631 | 0.609 | 0.632 | 0.423 | 0.567 | 0.653 | 0.696 | 0.697 | 0.979 | 0.954 | 0.983 | 0.984 | 0.475 | 0.463 | 0.423 | 0.417 | 0.48
NCI-H1437 | 0.297 | 0.296 | 0.297 | 0.26 | 0.814 | 0.684 | 0.841 | 0.751 | 0.645 | 1.01 | 1.01 | 1.04 | 1.01 | 0.281 | 0.297 | 0.305 | 0.322 | 0.294
PC-3 [JPC-3] | 0.486 | 0.467 | 0.52 | 0.502 | 0.73 | 0.624 | 0.725 | 0.756 | 0.565 | 0.964 | 0.942 | 1.01 | 0.961 | – | 0.589 | – | 0.546 | 0.444
NCI-H727 | 0.337 | – | 0.545 | 0.66 | 0.529 | – | 0.557 | 0.467 | 0.499 | 0.399 | 0.277 | 0.269 | 0.258 | 0.65 | – | 0.653 | 0.618 | 0.557
